In assay [1] the test system is patient-derived primary human TNBC xenografts. As to the kind of experiment: Xenograft assay, patient-derived TNBC. The class given is in vivo, mice. The note with it: two weeks of JQ1, 50 mg/kg daily. The method, then: For xenograft assays 5-6-weeks old female CrTac:NCr-Foxn1^nu and NOD.Cg-Prkdc^scid Il2rg^tm1Sug/JicTac mice were purchased from Taconic. Tumors were induced by bilateral orthotopic mammary fat pad injection of 1×10^6 cells in 50% Matrigel (BD Biosciences) in DMEM/F12 or Medium 171 (except for IDC50-X cells, which were injected with 3% FBS and 4 mg/ml collagen gel in Medium 171). Animal experiments were conducted following protocol 11-023 approved by the Dana-Farber Cancer Institute Animal Care and Use Committee.

In assay [2] the test system is SUM149 cells. As to the kind of experiment: Cell growth assay (viable cell numbers). The class given is cell-based, human. The conditions noted are these: low (0.5 μM) and high (2.0 μM) doses, 6 days. On the procedure: (§1) Cell viability and growth assays (FIGS. 1A-1B, FIGS. 3A-3E, 3G, FIGS. 5D-5F, FIGS. 6C, 6E, 6I, FIG. 7A, FIG. 10D, FIGS. 14A-14C), cycle, apoptosis, and MDR assays were performed in triplicates and repeated 2-3 times. For cell proliferation assays, cells were plated at 500 cells per well in 96-well plates and treated the next day with inhibitors, DMSO or doxycycline (500 ng). Cells were cultured at 37° C. with 5% CO2 in the media described-above, and cell viability was measured using CellTiter-Glo three days after treatments. For cell growth assays, cells were plated at 5000 (SUM159) or 20000 (SUM149) cells per well in 6-well plates and treated the next day with inhibitors. Cells were counted every three days by cell counter. Cellular apoptosis was analyzed with an APC AnnexinV/7ADD Apoptosis Detection kit (BD Pharmingen). AnnexinV/7AAD assessments and cell cycle graphics were generated using FlowJo software V7.6.1 for Windows (Tree Star). Senescence Beta-gal staining was performed using Senescence β-Galactosidase staining kit from Cell signaling. Briefly, after JQ1 treatment (500 nM) for 72 h, SUM159 and MDA-MB-231 cells were fixed by Fixative Solution for 15 min, followed by β-Galactosidase solution incubation overnight at 37° C. The staining was checked under microscope for the development of blue color. […] Briefly, SUM159 and SUM159R cells were treated with JQ1 or DMSO for 30 min in SUM medium. Verapamil was used as a positive control at 1:1000 dilution.

The subject of assay [3] is SUM149R cells. Put plainly: Cell growth assay (viable cell numbers). The class given is cell-based, human. The note with it: high concentrations (up to 20 μM) of JQ1. The method, then: as §1
Assay [4] relates to SUM159 cells. As to the kind of experiment: Cell growth assay (viable cell numbers). The note with it: low (0.5 μM) and high (2.0 μM) doses, 6 days. The class given is cell-based, human. On the procedure: as §1
In assay [5] the test system is SUM159R cells. As to the kind of experiment: Cell growth assay (viable cell numbers). The class given is cell-based, human. The conditions noted are these: high concentrations (up to 20 μM) of JQ1. The method, then:
as §1

Assay [6] addresses BRD4-MED1 association in SUM159 cells (Homo sapiens, UniProt O60885). Put plainly: BRD4 immunoprecipitation followed by immunoblot for MED1, resistant cells. The class given is cell-based. The conditions noted are these: resistant cells. More on the design: Observations from RIME data were pursued by BRD4 immunoprecipitation followed by immunoblot analysis for MED1 and BRD3; endogenous in cells; host or cells: SUM159 and SUM159R cells (nuclear extracts). The method, then: Cells were lysed five days after transfection with siRNAs in RIPA buffer. Proteins were resolved in SDS-polyacrylamide gels (4%-12%) and transferred to PVDF membranes by using a Tris-glycine buffer system. […] Cells were incubated on ice for 15 min and gently vortexed every 5 min. […] After centrifugation of the lysates at 14 g for 10 min at 4° C., supernatant was diluted with 0.6 ml buffer A, and added NP-40 to final 0.5% and treated with DNase I. The samples were then incubated at 4° C. overnight with BRD4 or Flag antibodies at 1:100 dilution and immunoprecipitates were collected on Dynabeads Protein G for 2 hr. Beads were washed with buffer B containing 150 mM NaCl and 0.5% NP-40 three times and then resuspended in gel loading buffer. Immunoblotting and immunoprecipitation experiments were repeated 2-3 times.

Regarding `Cc1sc2c(c1C)C(c1ccc(Cl)cc1)=N[C@@H](CC(=O)OC(C)(C)C)c1nnc(C)n1-2` [JQ1], the Tumor growth entry in assay [1] is recorded as “efficiently inhibited the growth of established tumors”. The Proliferation result in assay [2] is “severely impaired”; in assay [3], “continue to proliferate linearly over time”; in assay [4] it was “severely impaired”; in assay [5] it was “continue to proliferate linearly over time”. In addition, in assay [6], the “Association of BRD4 with MED1” value is given as “had no such effect”.

(Values after patent US11666580B2, “Mechanism of resistance to bet bromodomain inhibitors” (Dana-Farber Cancer Institute, Inc., priority 2015, dated 2023).)
